Activity calls are given as the source filed them. No cut-off for these calls is given here.
Key:
Mus musculus [1] = test: Compound was tested intraperitoneally against P388 acute lymphocytic leukemia in mice at a dose 100,50,25,12.5,6.25,3.72,1.56 mg/kg; format: functional
Mus musculus [2] = test: Compound was tested intraperitoneally against P388 acute lymphocytic leukemia in mice at a dose 0.75 mg/kg; format: functional; conditions: route intraperitoneal
Mus musculus [3] = test: Compound was tested intraperitoneally against P388 acute lymphocytic leukemia in mice; NA means inactive; format: functional, organism-based

Structure (SMILES) | T/C (Mus musculus [1]) | T/C (Mus musculus [3]) | further results
CC(=O)N1Cc2c(O)c3c(c(O)c2[C@@H](OC2C[C@H](NC(=O)C(F)(F)F)[C@H](O)[C@H](C)O2)C1)C(=O)c1ccccc1C3=O (stereo not given in full) | 105 | – | –
CC(=O)N1Cc2c(O)c3c(c(O)c2[C@H](OC2C[C@H](NC(=O)C(F)(F)F)[C@H](O)[C@H](C)O2)C1)C(=O)c1ccccc1C3=O (stereo not given in full) | 105 | – | –
CC(=O)[C@]1(O)Cc2c(O)c3c(c(O)c2[C@@H](OC2CC(N)C(O)C(C)O2)C1)C(=O)c1ccccc1C3=O (stereo not given in full) | – | – | T/C (Mus musculus [2]): 160
COc1ccc(OC)c(CNCC(OC)OC)c1 | – | inactive | –
COc1ccc(OC)c2c1CN(C(C)=O)CC2O (stereo not given) | – | inactive | –

Source: ChEMBL document CHEMBL1123315, “Total chemical synthesis and antitumor evaluation of the 9-aza analogue of N-(trifluoroacetyl)-4-demethoxydaunomycin” (1986)
